How the values were obtained:
[1] = test system: (G4T4G4)2 (DNA, G4) GGGGTTTTGGGG; assay: UV-Vis titration; details: 100 mM KCl, 20 mM potassium phosphate, PBS pH 6.8, 25 °C
[2] = test system: AG3(T2AG3)3 (DNA, G4) AGGGTTAGGGTTAGGGTTAGGG; assay: UV-Vis titration; details: 100 mM KCl, 20 mM potassium phosphate; PBS 0.1 mM EDTA pH 6.8, 25 °C; 2 μM ligand; apparent
[3] = test system: 5GC (DNA, duplex) GCGCGCGCGC; assay: UV-Vis titration; details: 100 mM KCl, 20 mM potassium phosphate; PBS 0.1 mM EDTA pH 6.8, 25 °C; 2 μM ligand; apparent
[4] = test system: AG3(T2AG3)3 (DNA, G4) AGGGTTAGGGTTAGGGTTAGGG; assay: CD melting at 290 nm; details: 100 mM KCl, 20 mM potassium phosphate; PBS pH 6.8; 6 μM as printed for solutions; derived from two Tm
[5] = test system: (T2G5T)4 (DNA, G4) TTGGGGGT; assay: G4-FID fluorescent intercalator displacement; details: 100 mM KCl, 20 mM potassium phosphate; PBS pH 6.8, 25 °C; thiazole orange displaced
[6] = test system: AG3(T2AG3)3 (DNA, G4) AGGGTTAGGGTTAGGGTTAGGG; assay: G4-FID fluorescent intercalator displacement; details: 100 mM KCl, 20 mM potassium phosphate; PBS pH 6.8, 25 °C; thiazole orange displaced
[7] = test system: AG3(T2AG3)3 (DNA, G4) AGGGTTAGGGTTAGGGTTAGGG; assay: fluorimetric titration, ligand fluorescence, Hill fit; details: 100 mM KCl, 20 mM potassium phosphate; 25 °C; 1 μM ligand, DNA 0-3 μM; apparent; Hill n ≈ 2
[8] = test system: 5GC (DNA, duplex) GCGCGCGCGC; assay: G4-FID fluorescent intercalator displacement; details: 100 mM KCl, 20 mM potassium phosphate; PBS pH 6.8, 25 °C; thiazole orange displaced

binding ([1]; 2 μM ligand, red shift 15 nm) | KD [2] | KD [3] | ΔTm [4] [°C] | DC50 [5] [nM] | DC50 [6] [nM] | KD [7] [nM] | DC50 [8] [nM] | binding ([1]; red shift 13 nm) | binding ([1]; 2 μM ligand, red shift 17 nm) | Compound
yes | (7.61 ± 0.11) × 10^−8 M | (4.74 ± 0.13) × 10^−4 M | 11.8 | 1080 ± 80 | 1040 ± 280 | 74 | 1300 ± 210 | – | – | COc1cc[n+](-c2cc3c(cc2-[n+]2ccc(OC)cc2)-c2nc-3nc3nc(nc4[n-]c(nc5[n-]c(n2)c2cc(-[n+]6ccc(OC)cc6)c(-[n+]6ccc(OC)cc6)cc52)c2cc(-[n+]5ccc(OC)cc5)c(-[n+]5ccc(OC)cc5)cc42)-c2cc(-[n+]4ccc(OC)cc4)c(-[n+]4ccc(OC)cc4)cc2-3)cc1.[Zn+2]
– | – | – | 7.0 | 1170 ± 200 | 1070 ± 90 | 290 | 940 ± 200 | yes | – | C[n+]1ccc(-c2c3nc(c(-c4cc[n+](C)cc4)c4ccc([nH]4)c(-c4cc[n+](C)cc4)c4nc(c(-c5cc[n+](C)cc5)c5ccc2[nH]5)C=C4)C=C3)cc1
– | (9.58 ± 0.09) × 10^−6 M | (1.28 ± 0.17) × 10^−5 M | – | 1840 ± 30 | 1950 ± 260 | 540 | 1930 ± 480 | – | yes | C[n+]1ccc(Sc2cc3c(cc2Sc2cc[n+](C)cc2)-c2nc-3nc3nc(nc4[n-]c(nc5[n-]c(n2)c2cc(Sc6cc[n+](C)cc6)c(Sc6cc[n+](C)cc6)cc52)c2cc(Sc5cc[n+](C)cc5)c(Sc5cc[n+](C)cc5)cc42)-c2cc(Sc4cc[n+](C)cc4)c(Sc4cc[n+](C)cc4)cc2-3)cc1.[Zn+2]

From publication PMC6412362 (2019)
